Columns and labels:
[1] = test system: APPs levels in the cerebrospinal fluid; assay: Western blot of secreted APPs in CSF after i.p. injection; format: in vivo, guinea pig; details: for Inhibition of the stimulatory effect of dexnorfenfluramine (1 mg/kg) on APPs in CSF: ritanserin 1 mg/kg or ketanserin 2 mg/kg, CSF one hour after injections; for APPs levels in the cerebrospinal fluid relative to saline-injected control: CSF one hour after injection, p<0.05
Source text: (§1) Guinea pigs are acclimatized to animal housing conditions for at least 70 days before receiving drug treatments or CSF withdrawal. CSF is withdrawn from the cisternae magna. Briefly, the dorsal cervical area and the occipital area of the skull is shaved and cleansed with alcohol after anesthesizing the guinea pigs with ketamine. A 33-gauge needle is used to penetrate the skin, the atlanto-occipital membrane and the dura mater in the region between the anterior of the first vertebra, and posterior of the cerebellum and the occipital protuberance. Upon penetration of the cistemae magna, a slight resistance in advancing the needle is felt; CSF is withdrawn via a PE10 polyethylene tubing attached to the needle at one end, and to a 20 ml syringe at the other. No more than 200 μL of CSF is withdrawn from each guinea pig per session or within a 24h interval. Occasionally, blood is present in the CSF; these samples are discarded and not used for analysis. The entire procedure for CSF withdrawal is completed within 5 minutes.
[…] Sterile normal saline is given control guinea pigs. To determine the time-course of APPs secretion, CSF is withdrawn at 1, 2, 4 or 8h after i.p. injections of either 1 mg/kg dexnorfenfluramine or saline. To determine the effect of chronic dexnorfenfluramine administration on secreted and brain APP levels, guinea pigs are injected with 2 mg/kg dexnorfenfluramine for 10 consecutive days. Withdrawal of CSF is performed 2h after dexnorfenfluramine on the tenth day, after which the guinea pigs are sacrificed and brains removed for analysis. Each guinea pig is repeatedly and randomly assigned on different days for either dose-response, for time-course, and for dexnorfenfluramine-5HT antagonist studies of APPs or Aβ secretion.
CSF (1-200 μL) is used for Western blot analysis of secreted APPs. For analysis of APP holoprotein, brain tissue from the cortex and hippocampus are collected in Eppendorf tubes and sonicated in 50 μL lysis buffer (60 mM Tris-HCl, 4%SDS, 20% glycerol, 1 mM dithiotreitol). The samples are boiled for 10 min to inhibit protease activity. The total amount of protein in each sample is measured by the bicinchoninic acid (Sigma) assay. Prior to gel electrophoresis, 1 μL of 5% bromphenol blue solution is added to each sample.
The amount of CSF or cell protein loaded for sodium dodecyl sulfate-polyacrylamide gel electrophoresis (10-20% SDS PAGE; Bio-Rad) is normalized for the amount of protein per sample. Proteins (equivalent to ˜100 μg cell protein/lane) are separated by electrophoresis, electroblotted onto polyvinylidene difluoride membranes (Immobilon-P, Millipore) and blocked in Tris-buffered saline with 0.15% Tween 20 (TBST) containing 5% powdered milk for 30 min. After 2×10 min rinses in TBST, the membranes are incubated in TBST containing an appropriate antibody. Monoclonal antibody 22C11 (from Boehringer-Mannheim) and APP-KPI (from Chemicon) were used to detect the N-terminus and KPI-domain of APP respectively; an antibody against glial fibrillary acidic […] (GFAP) is obtained from Chemicon.
After an overnight incubation, membranes are rinsed in TBST before being treated for lh with a peroxidase-linked secondary antibody. After several rinses in TBST, protein bands are visualized on Kodak X-AR films by an enhanced chemiluminescence method (Amersham). Optical densities of the protein bands are quantitated by laser scanning densitometry (LKB, Bromma, Sweden), and normalized to the densities of those bands generated under control conditions.
Data Analysis—Measurements of cellular and secreted proteins are normalized against those of control groups prepared in parallel and loaded onto the same blot. Analyses of variance (ANOVA) and t-tests for repeated measures are used to evaluate differences between groups (significance level, p=0.05), using drug treatments as the independent variable. Data are presented as means±SE, n=number of independent experiments.

[2] = test system: GFAP-immunoreactive cultured astrocytes; assay: APP overexpression in cultured astrocytes; format: cell-based, rat
Procedure: Astrocytes are isolated from cortices from postnatal rats by methods standard in the art. In brief, dissected cortices are dissociated by trypsinization and trituration through a flamepolished Pasteur pipette. Cells are plated onto poly-L-lysine coated 35- or 100 mm culture dishes at densities of about 10-25 cells/mm^2. The initial culture media, minimal essential medium (MEM, Gibco) containing 10% horse serum (BioWhittaker), are aspirated after 2-5 h after plating to remove unattached cells and debris, and replaced with MEM containing 7.5% fetal bovine serum (FBS, BioWhittaker). Half the media is replaced with MEM/7.5% FBS twice weekly. Cells are kept at 37° C. in a humidified 5% CO2/95% air incubator. Media are changed twice weekly. […]
The amount of media or cell protein loaded for sodium dodecyl sulfate-polyacrylamide gel electrophoresis (10-20% SDS PAGE; Bio-Rad) is normalized for the amount of protein per sample. […] Monoclonal antibodies 22C11 and GFAP (both from Boehringer Mannheim) are used to detect the N-terminus of APP and glial fibrillary acidic protein respectively; antisera R37 and R98 (gifts of Dr. F. Kametani, Tokyo Institute of Psychiatry) are used to detected the C-terminus and KPI motifs of APP respectively; antiserum C8 (gift of Dr. D. Selkoe, Women's Hospital, Harvard Medical School, Cambridge, Mass.) is used to detect the C-terminus of APP. […]

[3] = test system: Brain APP holoprotein; assay: Western blot of brain APP holoprotein after chronic administration; format: in vivo, guinea pig; details: 10 consecutive days i.p., 1 mg/kg, p>0.05
[4] = test system: Aβ1-42 in the cerebrospinal fluid; assay: Aβ42 ELISA of CSF after i.p. injection; format: in vivo, guinea pig
Source text: as §1, with “minutes. […]” for “minutes.”
(§2) Measurements of soluble Aβ1-40 or Aβ1-42 in the CSF are quantified using the Aβ40 or Aβ42 enzyme-linked immunosorbent assay (ELISA) kit (QBC, Hopkinton, Mass.) using the procedures recommended by the manufacturer. […]

[5] = test system: Aβ1-40 in the cerebrospinal fluid; assay: Aβ40 ELISA of CSF after i.p. injection; format: in vivo, guinea pig
Source text: as §1, with “minutes. […]” for “minutes.”
as §2

[6] = 10 consecutive days i.p., 1 mg/kg
[7] = 0.5, 1, 2 or 4 mg/kg, single injection, p>0.05

Compound | Inhibition of the stimulatory effect of dexnorfenfluramine (1 mg/kg) on APPs in CSF [1] | APPs levels in the cerebrospinal fluid relative to saline-injected control ([1]; 0.5 mg/kg i.p.) [fold] | APPs levels in the cerebrospinal fluid relative to saline-injected control ([1]; 1 mg/kg i.p.) [fold] | APPs levels in the CSF relative to control group ([1]; 1 mg/kg, 1h after injection) [fold] | APPs levels in the CSF relative to control group ([1]; 1 mg/kg, 2h after injection) [fold] | APPs levels in the CSF relative to control group ([1]; 1 mg/kg, 4h after injection) [fold] | APPs levels in the CSF relative to control group ([1]; 1 mg/kg, 8h after injection) [fold] | APPs levels in the cerebrospinal fluid relative to saline-injected control ([1]; 2 mg/kg i.p.) [fold] | APPs levels in the cerebrospinal fluid relative to saline-injected control ([1]; 4 mg/kg i.p.) [fold] | Increase of APPs levels in CSF relative to control [1, 6] [fold] | Effect on APP overexpression in cultured astrocytes [2] | Brain APP holoprotein levels [3] | Effect on levels of Aβ1-42 in the cerebrospinal fluid relative to control [4, 7] | Aβ1-42 levels in CSF relative to control [4, 6] | Effect on levels of Aβ1-40 in the cerebrospinal fluid relative to control [5, 7] | Aβ1-40 levels in CSF relative to control [5, 6]
O=C(c1ccc(F)cc1)C1CCN(CCn2c(=O)[nH]c3ccccc3c2=O)CC1 [ketanserin] | completely inhibited | – | – | – | – | – | – | – | – | – | – | – | – | – | – | –
CC(N)Cc1cccc(C(F)(F)F)c1 (single isomer, unassigned; (+)) [dexnorfenfluramine, (+)2-amino-1-(3-trifluoromethylphenyl) propane] | – | 1.25 | 1.45 | 1.5 | 2.0 | 1.3 | 1.5 | 1.6 | 1.4 | 1.6 | can inhibit APP overexpression | not altered | no significant effect | decreased | no significant effect | decreased
Cc1nc2sccn2c(=O)c1CCN1CCC(=C(c2ccc(F)cc2)c2ccc(F)cc2)CC1 [ritanserin] | completely inhibited | – | – | – | – | – | – | – | – | – | – | – | – | – | – | –
